The values that follow are results of earlier work, collected in EP1757570A1, “Process for obtaining a purified hydrofluoroalkane with 2 carbon atoms” (Solvay SA, priority 2005, dated 2007).

Read-outs that look alike come from different tables or passages of the source.

As for `O=C(OOC(=O)c1ccccc1)c1ccccc1` [DBP, dibenzoylperoxide], the Half life reads like this: (73 °C, in solution in benzene) 10 h; (92 °C, in solution in benzene) 1 h; (131 °C, in solution in benzene) 0.017 h.

Consider `CC(C)(C#N)N=NC(C)(C)C#N` [AIBN, 2,2'-azobis(isobutyronitrile)], for which the Half life (65 °C) is 10 h, the Half life (82 °C) is 1 h and the Half life (120 °C) is 0.017 h.
